“Also recorded” adds a separate entry of the source.
Columns and labels:
[1] = two injections of 0.5 mL 5% silver nitrate per iliac artery
Description: The animal was sacrificed according to approved protocol following the last injection. The arteries were removed and placed in 10% formalin without perfusion. 2 mm segments were embedded in paraffin, sectioned, and hematoxylin-eosin stained.

[2] = system: patients with atherosclerotic lower extremity occlusive disease of the superficial femoral or popliteal arteries
Description: Patients with TASC II A, B, and C disease of the superficial femoral and/or popliteal arteries were eligible for this study.
Unique identifier: NCT 01507558). The study design was a prospective, single-center, investigator-initiated study that enrolled consecutive patients who met eligibility requirements from the San Francisco Veteran Affairs Medical Center. This study was approved by the Committee for Human Research and the University of California Clinical and Translational Science Institute. Safety data and outcomes were monitored by a Data Safety and Monitoring Committee that convened on a quarterly basis or as needed.
The primary inclusion criteria were patients suffering from moderate to severe disabling claudication, ischemic rest pain, or minor tissue loss secondary to atherosclerotic lower extremity occlusive disease with TransAtlantic Inter-Society Consensus II […] lesions of the superficial femoral artery (SFA) or popliteal arteries.
The Bullfrog® Micro-Infusion is a rapid-exchange, wire-guided catheter with a balloon-sheathed 0.9-mm-long, 35-gauge (140 μm diameter) needle that delivers infusions to adventitial and perivascular tissues. It is Food and Drug Administration 510(k)-cleared for use in coronary and peripheral arteries. It is advanced through a 6F sheath over a 0.014-inch wire and can treat vessels from 3 to 6 mm in diameter. Three radio-opaque markers on the catheter allow for proper orientation of the needle. Using standard angioplasty inflation equipment, the balloon was inflated exposing the needle. When the balloon contacted the arterial wall opposite the needle tip, contact pressure forced the needle through the vessel wall and into the adventitia and perivascular tissues. The contact pressure of the balloon against the artery wall is limited to 2 atmospheres by a pressure release valve, which prevents damage to the artery wall. A mixture of infusate and contrast (4:1) was then delivered under fluoroscopic guidance into the adventitia. A test injection of 0.1 mL was made to confirm proper adventitial placement of the microinfusion needle tip. If resistance is met, or the test injection enters the blood stream, the balloon was deflated and the injection is attempted in another location by moving the catheter a few millimeters proximally or distally or rotating the catheter a few degrees. Once adventitia placement was confirmed, the remainder of the infusate was delivered at a rate of 1 mL/min. When the infusion was complete, the balloon was deflated, sheathing the needle, and allowing the catheter to be withdrawn. FIG. 12. Injections were administered approximately every 3 cm along the length of the treated arterial segment.
Patients not taking aspirin or clopidogrel before study enrollment received 325 mg of aspirin 12 hours prior the procedure. Postprocedure, patients were prescribed 81 mg/d of aspirin to be taken indefinitely and 75 mg/d of clopidogrel daily for 12 weeks. Vascular access was accomplished by either the contralateral or ipsilateral (anterograde) approach. Patients received a bolus of 5000 IU of heparin after insertion of the sheath in the common femoral artery, and their activated clotting time was kept above 250 seconds with additional heparin as needed. In the case of chronic total occlusions, all lesions were crossed subintimally with a glide wire and glide catheter (Terumo, Somerset, N.J.). After securing access across the lesion with a guidewire, the target lesion was treated according to physician preference. All patients were treated with balloon angioplasty.

[3] = system: patients with superficial femoral or popliteal artery lesions; test: DANCE Trial: circulating hsCRP and MCP-1 after revascularization with adventitial and perivascular dexamethasone; assay type: in vivo, human; details: baseline and 24 hours, about 1.6 mg per cm of lesion
Method: An additional study has enrolled 140 patients in the United States, meeting similar enrollment criteria as those in the 20-patient study described above. In these patients, approximately one-third of them have had blood draws right before a revascularization procedure of their superficial femoral or popliteal artery, and then again at 24±4 hours after their revascularization procedure. Arterial lesions in this study were at least 70% occlusive prior to revascularization and up to 15 cm in length. Revascularization therapy was performed with angioplasty, atherectomy, provisional stenting, or a combination thereof. […] The Schillinger 2002 published research would indicate the likelihood for a substantial rise in the hsCRP after revascularization therapy, and that this rise is linked to the rate of restenosis at 6 months following the revascularization procedure. The data from Schillinger 2002 and the 20-patient study described above (the DANCE-Pilot, in which 15 patients had baseline and 24 hour hsCRP levels examined) are plotted in FIG. 15, along with 41 patients from the larger 139 patient group (the DANCE Trial).
Additional data coming out of the interim analysis of the DANCE study includes the first 9 patients to have MCP-1 analyzed from their circulating blood at baseline and at 24 hours. […]

[4] = system: graft-vein anastomosis and proximal vein of porcine AV grafts; details: pig, in vivo
Method: Fourteen days after graft implantation, percutaneous transluminal angioplasty (PTA) was performed (7 mm balloon, 16 atmosphere inflation pressure) at two sites per graft: across the graft-vein anastomosis (GVA) and in the proximal vein (PV). […] Infusions of 3 ml were always consistent between the 2 grafts in each animal.

[5] = Distribution of tacrolimus after periadventitial injection in swine coronary arteries, LC/MS of tissue; assay type: in vivo
Method: Distribution of a lipophilic compound (tacrolimus): Eight swine underwent angiography. […] The two remaining arteries served as untreated controls. An untreated heart was used as a negative control. At 48 hours arteries were dissected from the musculature and perivascular fat, cut into 5 mm sections and analyzed by Liquid Chromatography/Mass Spectrometry against tacrolimus calibration standards containing homogenized untreated porcine heart tissue.

[6] = pig, in vivo
Method: Injections were made to depths in the range from 0.8 mm to 1.2 mm One artery was treated intraluminally with 5 mL OGP to determine background vascular uptake. Animals were sacrificed 0.5-23 hr post-procedure following IACUC-approved protocol. After sacrifice, the LAD, RCA and LCx were removed, cut into 4-5 mm sections, which were frozen and cryosectioned. The slides were counter-stained with 0.1% Evan's Blue in PBS (5 min 37 C) to quench autofluorescence, observed with a UV microscope, and scored 0-4+. Representative sections were photographed.

## O=[N+]([O-])[O-].[Ag+] [Silver Nitrate]
[1]
  staining: site of delivery and diffusion: delivery outside the external elastic lamina of the vessels and diffusion around the circumference

## C[C@@H]1C[C@H]2[C@@H]3CCC4=CC(=O)C=C[C@]4(C)[C@@]3(F)[C@@H](O)C[C@]2(C)[C@@]1(O)C(=O)CO [dexamethasone]
[2]; 6 month follow up, PSV ratio >2.4 or occlusion by ultrasound
  patients with target lesion restenosis: two
[2]; 6 months, all patients but the one with target lesion restenosis
  Rutherford classification scores versus pre-op baseline: improved
[2]; 6 months, preoperative 3.1±0.71, P<0.00001
  mean Rutherford score: 0.5±0.70
[2]; 6 months, preoperative median 3.0
  median Rutherford score: 0
[2]; all time points post procedure, FIG. 14
  mean ABI versus baseline: significantly improved
[2]; assessed by fluoroscopy
  patients with only partial coverage by contrast distribution (grade=B): one
[2]; assessed by fluoroscopy immediately after the infusion
  subjects with complete circumferential coverage of the lesion with the infusate (grade=A): 19 out of 20 subjects
[2]; by 6 months, 20 patients
  patients with loss of primary patency (duplex ultrasound binary restenosis): Two
[2]; compared with Schillinger 2002
  anticipated rise of hsCRP: appears to be dampened
[2]; follow up 381±181 days
  patients with target extremity stenosis not within the treated segment: Three
[2]; one-year follow up, N=10, P<0.0001 vs baseline
  ABI measurements: 1.04±0.21
[2]; one-year follow up, patients without index lesion restenosis, N=8
  PSVR: 1.1±0.6
[2]; preoperative 6.9±8.5, P=0.14
  CRP at 24 hours following the procedure: 14.0 ± 23.1 mg/L
[2]; versus preoperative, not statistically significant (P=0.14)
  increase of CRP at 24 hours: 103%
[2]; within 30 days, acute hyperglycemia in one patient, controlled by insulin
  drug or device-related adverse events reported: one
[3]; 41 patients, versus Schillinger 2002, FIG. 15
  effect on hsCRP inflammatory spike after revascularization: capable of reducing the inflammatory spike
[3]; first 9 patients, FIG. 16
  change in circulating MCP-1: marked drop in MCP-1; also recorded: a drop in MCP-1
[4]
  adverse effect compared to placebo in the adventitia: no observable adverse effect

## C=CC[C@@H]1/C=C(\C)C[C@H](C)C[C@H](OC)[C@H]2O[C@@](O)(C(=O)C(=O)N3CCCC[C@H]3C(=O)O[C@H](/C(C)=C/[C@@H]3CC[C@@H](O)[C@H](OC)C3)[C@H](C)[C@@H](O)CC1=O)[C@H](C)C[C@@H]2OC [tacrolimus]
[5]; 48 hours, including side branches and uninjected arteries
  segments in which drug was detected: 285/293
[5]; periadventitial delivery, higher concentrations at injection sites
  subjects with distribution to the entire coronary tree: 8/8

## Oregon Green® 488 paclitaxel [OGP]
[6]
  circumferential staining: staining was observed throughout the circumference of the artery
